According to patent US11286263B2, “Macrocyclic fluorine substituted indole derivatives” (The Broad Institute, Inc., priority 2017, dated 2022):
Where “and” joins values, the source holds several entries; their conditions need not be identical. Identical values can stand only once. Counter-ions that a name gives are not always drawn. Like-named read-outs stand apart in the source and are kept apart here.

Assays:
SUDHL10 = assay: Induction of cytotoxicity, SUDHL10 (Assay 6); details: read-out: IC50 Cytotox SUDHL10 [M] (median), SUDHL10 cells, 5 h, CellTiter-Glo
Description: In principle, compounds that induce apoptosis will concomitantly induce cell cytotoxicity. Therefore, cytotoxicity assays were run in parallel in SUDHL5 and SUDHL10 cells.
The different cell lines were plated in culture medium (RPMI 1640 [GIBCO #22400-089] supplemented with 10% Fetal Bovine Serum) at a density of 3,300 cells in 30 μl/well in a sterile, solid black, flat bottom, polystyrene, TC-treated 384-well microplate (Corning #3571) using Multidrop Combi Reagent Dispenser. As a control, medium without cells was also added to the plate. Cells were incubated in a humidified incubator at 37° C. overnight. On the next day, the cells were treated with compounds (stock solution, 10 mM in DMSO) using the HP D300 Digital Dispenser in a concentration range of 3.3×10e-5 M (33 μM) to 5×10e-9 M (5 nM) in a single-dot curve with at least 16 dilutions and a DMSO concentration of 0.33%. Rim wells were excluded. The cells were incubated for 5 h hours in a humidified incubator at 37° C. After this incubation, 30 μl of CellTiter-Glo® Luminescent Cell Viability reagent (Promega, G7573) was added to each well using the Multidrop Combi Reagent Dispenser, followed by 15 min incubation on a shaker at room temperature. Finally, luminescence was read at 0.1 ms, with a gain of 3000 using the PHERAstar FS microplate reader (BMG Labtech).
The Bella DRC Master Sheet was used to calculate IC50s, with fixed CI=0 and C0=1.

A2780 = assay: Antiproliferation assay A2780 (Assay 7); type: cell-based; details: A2780 cells, CellTiter-Glo, single determinations, read-out: IC50 Antiproli A2780
Summary of the method: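 A reference plate measured at day 0 set the time-zero baseline. Treated plates were read by CellTiter-Glo luminescence after 72 h of compound exposure at 37°C in a humidified incubator.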

MCL-1 = MCL-1 (Homo sapiens (Human), UniProt Q07820, K194A/K197A/R201A); assay: Protein-protein interaction assay MCL-1/Noxa BH3 peptide (MCL-1 assay), TR-FRET; type: binding; details: MCL-1/Noxa BH3 peptide TR-FRET; median
Sequence of MCL-1 (Q07820 whole entry K194A/K197A/R201A, looked up): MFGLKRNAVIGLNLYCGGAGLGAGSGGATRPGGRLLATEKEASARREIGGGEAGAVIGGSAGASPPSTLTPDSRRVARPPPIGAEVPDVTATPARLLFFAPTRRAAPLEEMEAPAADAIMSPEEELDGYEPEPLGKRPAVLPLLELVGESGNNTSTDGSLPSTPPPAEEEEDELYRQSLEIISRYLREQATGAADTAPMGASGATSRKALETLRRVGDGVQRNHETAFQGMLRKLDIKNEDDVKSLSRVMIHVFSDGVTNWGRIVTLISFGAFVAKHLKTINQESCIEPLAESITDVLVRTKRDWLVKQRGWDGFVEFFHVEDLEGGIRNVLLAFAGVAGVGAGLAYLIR
Summary of the method: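 TR-FRET competition between MBP-MCL-1 (173-321, 1 nM) and biotin-Noxa BH3 peptide (1 nM) with anti-MBP-Eu/streptavidin-XL665; 11 compound levels 0.1 nM–20 μM, 10 min preincubation. Incubated 1 h at 22 °C then overnight at 4 °C, pH 7 Tris buffer. 665/620 ratio normalized to DMSO and no-MCL-1; 4-parameter IC50.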

## CCc1c2c(nn1C)COCCCCn1c(C(=O)O)c(CCCOc3cccc4ccccc34)c3ccc(F)c-2c31 (single isomer, unassigned; enantiomer 1) [Example 7, 3-ethyl-4-fluoro-2-methyl-7-{3-[(naphthalen-1-yl)oxy]propyl}-2,10,11,12,13,15-hexahydro-pyrazolo[4′,3′:9,10][1,6]oxazacycloundecino[8,7,6-hi]indole-8-carboxylic acid-N-ethylethanamine salt (enantiomer 1)]
SUDHL10
  IC50: 1.3e-06 M
A2780; 72 h, listed as 07
  IC50: 8.84 µM and 13.2 µM
MCL-1
  IC50: 0.00097 µM

## Cc1c2c(nn1C)CNCCCCn1c(C(=O)O)c(CCCOc3cccc4ccccc34)c3ccc(F)c-2c31 (single isomer, unassigned; enantiomer 1) [Example 48, 4-fluoro-2,3-dimethyl-7-{3-[(naphthalen-1-yl)oxy]propyl}-10,11,12,13,14,15-hexahydro-2H-pyrazolo[3′,4′:8,9][1,6]diazacycloundecino[10,11,1-hi]indole-8-carboxylic acid (enantiomer 1)]
SUDHL10
  IC50: 1.9e-06 M
A2780; 72 h
  IC50: 7.17 µM
MCL-1
  IC50: 0.0011 µM

## Cc1nn(C)c2c1-c1c(F)ccc3c(CCCOc4cccc5c4CCCC5)c(C(=O)O)n(c13)CCCCOC2 (racemic) [Example 34, (rac)-13-fluoro-10,12-dimethyl-1-(3-((5,6,7,8-tetrahydronaphthalen-1-yl)oxy)propyl)-4,5,6,7,9,10-hexahydropyrazolo[4′,3′:9,10][1]oxa[6]azacycloundecino[8,7,6-hi]indole-2-carboxylic acid]
SUDHL10; Homo sapiens, SU-DHL10, 5 h
  IC50: 4.2e-06 M
A2780; Homo sapiens, A2780, 72 h
  IC50: 20.9 µM
MCL-1
  IC50: 0.0013 µM

## CCc1nn(C)c2c1-c1c(F)ccc3c(CCCOc4cccc5c4CCC5)c(C(=O)O)n(c13)CCCCOC2 (racemic) [Example 45, (rac)-1-(3-((2,3-dihydro-1H-inden-4-yl)oxy)propyl)-12-ethyl-13-fluoro-10-methyl-4,5,6,7,9,10-hexahydropyrazolo[4′,3′:9,10][1]oxa[6]azacycloundecino[8,7,6-hi]indole-2-carboxylic acid]
SUDHL10; Homo sapiens, SU-DHL10, 5 h
  IC50: 3.4e-06 M
A2780; Homo sapiens, A2780, 72 h
  IC50: 28.2 µM
MCL-1
  IC50: 0.0014 µM

## Cc1nn(C)c2c1-c1c(F)ccc3c(CCCOc4cccc5cc(F)ccc45)c(C(=O)O)n(c13)CCCCOC2 (racemic) [Example 32, (rac)-13-fluoro-1-(3-((6-fluoronaphthalen-1-yl)oxy)propyl)-10,12-dimethyl-4,5,6,7,9,10-hexahydropyrazolo[4′,3′:9,10][1]oxa[6]azacycloundecino[8,7,6-hi]indole-2-carboxylic acid]
SUDHL10; Homo sapiens, SU-DHL10, 5 h
  IC50: 2e-06 M
A2780; Homo sapiens, A2780, 72 h
  IC50: 15.2 µM
MCL-1
  IC50: 0.0011 µM

## Cc1c2c(nn1C)COC/C=C\Cn1c(C(=O)O)c(CCCOc3cccc4ccccc34)c3ccc(F)c-2c31 (racemic) [Example 1, (rac)-(11Z)-4-fluoro-2,3-dimethyl-7-[3-(naphthalen-1-yloxy)propyl]-2,10,13,15-tetrahydro-pyrazolo[4′,3′:9,10][1,6]oxazacycloundecino[8,7,6-hi]indole-8-carboxylic acid]
SUDHL10; Homo sapiens, SU-DHL10, 5 h
  IC50: 3.8e-06 M
A2780; 72 h, listed as 01
  IC50: 21.1 µM
A2780; Homo sapiens, A2780, 72 h
  IC50: > 33 µM
MCL-1
  IC50: 0.0018 µM

## Cc1nn(C)c2c1-c1c(F)ccc3c(CCCOc4cccc5ccccc45)c(C(=O)O)n(c13)C/C=C\COC2 (racemic) [Example 9, (rac)-(Z)-13-fluoro-10,12-dimethyl-1-(3-(naphthalen-1-yloxy)propyl)-4,7,9,10-tetrahydro-pyrazolo[4′,3′:9,10][1]oxa[6]azacycloundecino[8,7,6-hi]indole-2-carboxylic acid]
SUDHL10; Homo sapiens, SU-DHL10, 5 h
  IC50: 1.5e-05 M
A2780; 72 h, listed as 09
  IC50: 20.7 µM
A2780; Homo sapiens, A2780, 72 h
  IC50: 23.1 µM
MCL-1
  IC50: 0.0024 µM

## Cc1c2c(nn1C)COCCCCn1c(C(=O)O)c(CCCOc3cccc4cc(F)ccc34)c3ccc(F)c-2c31 (single isomer, unassigned; enantiomer 1) [Example 13, 4-fluoro-7-{3-[(6-fluoronaphthalen-1-yl)oxy]propyl}-2,3-dimethyl-2,10,11,12,13,15-hexahydro-pyrazolo[4′,3′:9,10][1,6]oxazacycloundecino[8,7,6-hi]indole-8-carboxylic acid-N-ethylethanamine salt (enantiomer 1)]
SUDHL10
  IC50: 8e-07 M
A2780; 72 h
  IC50: 4.11 µM
MCL-1
  IC50: 0.00098 µM

## Cc1c2c(nn1C)COCCCCn1c(C(=O)O)c(CCCOc3cccc4c3CCC4)c3ccc(F)c-2c31 (racemic) [Example 19, (rac)-1-(3-((2,3-dihydro-1H-inden-4-yl)oxy)propyl)-13-fluoro-11,12-dimethyl-4,5,6,7,9,11-hexahydropyrazolo[4′,3′:9,10][1]oxa[6]azacycloundecino[8,7,6-hi]indole-2-carboxylic acid]
SUDHL10; Homo sapiens, SU-DHL10, 5 h
  IC50: 2.1e-06 M
A2780; Homo sapiens, A2780, 72 h
  IC50: 16.5 µM
MCL-1
  IC50: 0.0015 µM

## CCc1c2c(nn1C)COC/C=C\Cn1c(C(=O)O)c(CCCOc3cccc4ccccc34)c3ccc(F)c-2c31 (racemic) [Example 5, (rac)-(11Z)-3-ethyl-4-fluoro-2-methyl-7-[3-(naphthalen-1-yloxy)propyl]-2,10,13,15-tetrahydro-pyrazolo[4′,3′:9,10][1,6]oxazacycloundecino[8,7,6-hi]indole-8-carboxylic acid]
SUDHL10; Homo sapiens, SU-DHL10, 5 h
  IC50: 3.2e-06 M
A2780; 72 h, listed as 05
  IC50: 28.1 µM and 20.8 µM and 27.7 µM
A2780; Homo sapiens, A2780, 72 h
  IC50: 25.4 µM
MCL-1
  IC50: 0.0023 µM

## CCc1c2c(nn1C)COCCCCn1c(C(=O)O)c(CCCOc3cccc4c3CCCC4)c3ccc(F)c-2c31 (racemic) [Example 29, (rac)-12-ethyl-13-fluoro-11-methyl-1-(3-((5,6,7,8-tetrahydronaphthalen-1-yl)oxy)propyl)-4,5,6,7,9,11-hexahydropyrazolo[4′,3′:9,10][1]oxa[6]azacycloundecino[8,7,6-hi]indole-2-carboxylic acid]
SUDHL10; Homo sapiens, SU-DHL10, 5 h
  IC50: 1.8e-06 M
A2780; Homo sapiens, A2780, 72 h
  IC50: 9.17 µM
MCL-1
  IC50: 0.0015 µM

## CCc1nn(C)c2c1-c1c(F)ccc3c(CCCOc4cccc5ccccc45)c(C(=O)O)n(c13)CCCCOC2 (racemic) [Example 37, (rac)-12-ethyl-13-fluoro-10-methyl-1-(3-(naphthalen-1-yloxy)propyl)-4,5,6,7,9,10-hexahydro-pyrazolo[4′,3′:9,10][1]oxa[6]azacycloundecino[8,7,6-hi]indole-2-carboxylic acid]
SUDHL10; Homo sapiens, SU-DHL10, 5 h
  IC50: 4.8e-06 M
A2780; Homo sapiens, A2780, 72 h
  IC50: > 33 µM
MCL-1
  IC50: 0.0012 µM

## Cc1nn(C)c2c1-c1c(F)ccc3c(CCCOc4ccc(F)c5ccccc45)c(C(=O)O)n(c13)CCCCOC2 (racemic) [Example 33, (rac)-13-fluoro-1-(3-((4-fluoronaphthalen-1-yl)oxy)propyl)-10,12-dimethyl-4,5,6,7,9,10-hexahydropyrazolo[4′,3′:9,10][1]oxa[6]azacycloundecino[8,7,6-hi]indole-2-carboxylic acid]
SUDHL10; Homo sapiens, SU-DHL10, 5 h
  IC50: 8.4e-06 M
A2780; Homo sapiens, A2780, 72 h
  IC50: 23.3 µM
MCL-1
  IC50: 0.0017 µM

## Cc1cc(OCCCc2c(C(=O)O)n3c4c(c(F)ccc24)-c2c(C)nn(C)c2COCCCC3)cc(C)c1Cl (racemic) [Example 36, (rac)-1-(3-(4-chloro-3,5-dimethylphenoxy)propyl)-13-fluoro-10,12-dimethyl-4,5,6,7,9,10-hexahydropyrazolo[4′,3′:9,10][1]oxa[6]azacycloundecino[8,7,6-hi]indole-2-carboxylic acid]
SUDHL10; Homo sapiens, SU-DHL10, 5 h
  IC50: 9e-06 M
A2780; Homo sapiens, A2780, 72 h
  IC50: 29.5 µM
MCL-1
  IC50: 0.0021 µM
